Like-named read-outs stand apart in the source and are kept apart here.
Tested on: PopD E3 M-833 resistant clone (PfSTART1 N309K)
Assay: Growth inhibition assay (72 h, LDH activity)
Assay type: cell-based, Plasmodium falciparum
How it was run: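 Synchronised ring-stage 3D7-derived clones (0.3-0.6% parasitemia, 2% haematocrit) grown 72 h in compound serial dilutions, some with 0, 0.25 or 2.5 mM glucosamine. Growth read as LDH activity after freeze-thaw (Malstat/NBT, A650), normalised to DMSO and uninfected RBC; EC50 from variable-slope log(inhibitor) fit.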

With Cc1cc(Cl)c(S(=O)(=O)N2CCCC2)cc1OCC(=O)NC1CCCCC1 [M-833] the “Normalised to DMSO” value (M-833 0.0390625 uM, Pop D-E3 replicate 1) was 112.377, the “Normalised to DMSO” value (M-833 0.0390625 uM, Pop D-E3 replicate 3) was 111.25 and the “Normalised to DMSO” value (M-833 0.078125 uM, Pop D-E3 replicate 1) was 99.4191. The “Normalised to DMSO” value (M-833 0.078125 uM, Pop D-E3 replicate 3) was 110.5, the “Normalised to DMSO” value (M-833 0.15625 uM, Pop D-E3 replicate 1) was 107.328 and the “Normalised to DMSO” value (M-833 0.15625 uM, Pop D-E3 replicate 3) was 114.438. For the same compound, the “Normalised to DMSO” value (M-833 0.3125 uM, Pop D-E3 replicate 1) was 106.122, the “Normalised to DMSO” value (M-833 0.3125 uM, Pop D-E3 replicate 3) was 114.625 and the “Normalised to DMSO” value (M-833 0.625 uM, Pop D-E3 replicate 1) was 101.028. The “Normalised to DMSO” value (M-833 0.625 uM, Pop D-E3 replicate 3) was 107.875, the “Normalised to DMSO” value (M-833 1.25 uM, Pop D-E3 replicate 1) was 86.6399 and the “Normalised to DMSO” value (M-833 1.25 uM, Pop D-E3 replicate 3) was 110.688. For the same compound, the “Normalised to DMSO” value (M-833 2.5 uM, Pop D-E3 replicate 1) was 72.8552, the “Normalised to DMSO” value (M-833 2.5 uM, Pop D-E3 replicate 3) was 90.4375 and the “Normalised to DMSO” value (M-833 5 uM, Pop D-E3 replicate 1) was 44.37. For the same compound, the “Normalised to DMSO” value (M-833 5 uM, Pop D-E3 replicate 3) was 73.375, the “Normalised to DMSO” value (M-833 10 uM, Pop D-E3 replicate 1) was 23.9276 and the “Normalised to DMSO” value (M-833 10 uM, Pop D-E3 replicate 3) was 62.6875. For the same compound, the inhibition at 0.0390625 µM (Plasmodium falciparum, M-833 0.0390625 uM, Pop D-E3 replicate 1, read-out: % Inhibition) was -12.4%, the inhibition at 0.0390625 µM (Plasmodium falciparum, M-833 0.0390625 uM, Pop D-E3 replicate 3, read-out: % Inhibition) was -11.2% and the inhibition at 0.078125 µM (Plasmodium falciparum, M-833 0.078125 uM, Pop D-E3 replicate 1, read-out: % Inhibition) was 0.581%. The inhibition at 0.078125 µM (Plasmodium falciparum, M-833 0.078125 uM, Pop D-E3 replicate 3, read-out: % Inhibition) was -10.5%, the inhibition at 0.15625 µM (Plasmodium falciparum, M-833 0.15625 uM, Pop D-E3 replicate 1, read-out: % Inhibition) was -7.33% and the inhibition at 0.15625 µM (Plasmodium falciparum, M-833 0.15625 uM, Pop D-E3 replicate 3, read-out: % Inhibition) was -14.4%. It also gave an inhibition at 0.3125 µM (Plasmodium falciparum, M-833 0.3125 uM, Pop D-E3 replicate 1, read-out: % Inhibition) of -6.12%, an inhibition at 0.3125 µM (Plasmodium falciparum, M-833 0.3125 uM, Pop D-E3 replicate 3, read-out: % Inhibition) of -14.6% and an inhibition at 0.625 µM (Plasmodium falciparum, M-833 0.625 uM, Pop D-E3 replicate 1, read-out: % Inhibition) of -1.03%. The inhibition at 0.625 µM (Plasmodium falciparum, M-833 0.625 uM, Pop D-E3 replicate 3, read-out: % Inhibition) was -7.88%, the inhibition at 1.25 µM (Plasmodium falciparum, M-833 1.25 uM, Pop D-E3 replicate 1, read-out: % Inhibition) was 13.4% and the inhibition at 1.25 µM (Plasmodium falciparum, M-833 1.25 uM, Pop D-E3 replicate 3, read-out: % Inhibition) was -10.7%. The inhibition at 2.5 µM (Plasmodium falciparum, M-833 2.5 uM, Pop D-E3 replicate 1, read-out: % Inhibition) was 27.1%, the inhibition at 2.5 µM (Plasmodium falciparum, M-833 2.5 uM, Pop D-E3 replicate 3, read-out: % Inhibition) was 9.56% and the inhibition at 5 µM (Plasmodium falciparum, M-833 5 uM, Pop D-E3 replicate 1, read-out: % Inhibition) was 55.6%. For the same compound, the inhibition at 5 µM (Plasmodium falciparum, M-833 5 uM, Pop D-E3 replicate 3, read-out: % Inhibition) was 26.6%, the inhibition at 10 µM (Plasmodium falciparum, M-833 10 uM, Pop D-E3 replicate 1, read-out: % Inhibition) was 76.1% and the inhibition at 10 µM (Plasmodium falciparum, M-833 10 uM, Pop D-E3 replicate 3, read-out: % Inhibition) was 37.3%. It also gave an inhibition at 0.0390625 µM (Plasmodium falciparum, Pop D-E3 replicate 1, M-833 0.0390625 uM) of 2.67%, an inhibition at 0.078125 µM (Plasmodium falciparum, Pop D-E3 replicate 1, M-833 0.078125 uM) of -1.86% and an inhibition at 0.15625 µM (Plasmodium falciparum, Pop D-E3 replicate 1, M-833 0.15625 uM) of 1.05%. It also gave an inhibition at 0.3125 µM (Plasmodium falciparum, Pop D-E3 replicate 1, M-833 0.3125 uM) of 2.17%, an inhibition at 0.625 µM (Plasmodium falciparum, Pop D-E3 replicate 1, M-833 0.625 uM) of 5.06% and an inhibition at 1.25 µM (Plasmodium falciparum, Pop D-E3 replicate 1, M-833 1.25 uM) of 17.9%. For the same compound, the inhibition at 2.5 µM (Plasmodium falciparum, Pop D-E3 replicate 1, M-833 2.5 uM) was 29.5%, the inhibition at 5 µM (Plasmodium falciparum, Pop D-E3 replicate 1, M-833 5 uM) was 46.7% and the inhibition at 10 µM (Plasmodium falciparum, Pop D-E3 replicate 1, M-833 10 uM) was 65.4%. The EC50 (Plasmodium falciparum, read-out: EC50 (95% confidence interval)) was 3.53 µM, the “Normalised to DMSO” value (Pop D-E3 replicate 1, M-833 0.0390625 uM) was 97.3266 and the “Normalised to DMSO” value (Pop D-E3 replicate 1, M-833 0.078125 uM) was 101.86. For the same compound, the “Normalised to DMSO” value (Pop D-E3 replicate 1, M-833 0.15625 uM) was 98.9539, the “Normalised to DMSO” value (Pop D-E3 replicate 1, M-833 0.3125 uM) was 97.8303 and the “Normalised to DMSO” value (Pop D-E3 replicate 1, M-833 0.625 uM) was 94.9438. For the same compound, the “Normalised to DMSO” value (Pop D-E3 replicate 1, M-833 1.25 uM) was 82.1, the “Normalised to DMSO” value (Pop D-E3 replicate 1, M-833 2.5 uM) was 70.5347 and the “Normalised to DMSO” value (Pop D-E3 replicate 1, M-833 5 uM) was 53.3127. The “Normalised to DMSO” value (Pop D-E3 replicate 1, M-833 10 uM) was 34.6377.

Reference: paper PMC11189555, “Aryl amino acetamides prevent Plasmodium falciparum ring development via targeting the lipid-transfer protein PfSTART1” (Nature Communications, 2024)
